Our source for the IC50 values is US20250381243A1, “HETEROCYCLES AND USES THEREOF” (Kumquat Biosciences Inc., priority 2022, published 2025).

Like-named read-outs stand apart in the source and are kept apart here.

By IC50 is commonly meant the concentration that gives 50% inhibition.

This assay concerns A549 cells. Nature of the assay: Cell proliferation assay (CellTiter-Glo), cells with K-Ras G12S mutation. In kind it is cell-based. The conditions noted are these: Homo sapiens, read-out: Inhibition of A549 Cells (IC50). In outline:
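A549 (K-Ras G12S) cells in RPMI-1640 with 10% heat-inactivated FBS, plated in standard or ultra-low-attachment 384-well format, treated next day with a dilution series (e.g., 10-point, 3-fold). Viability read by CellTiter-Glo luminescence about 6 days later; IC50 from four-parameter fit.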
(ATP-based viability assays read luminescence as a measure of living cells.)

As for `N#Cc1c(N)sc2c(F)ccc(-c3c(Cl)cc4c(N5CCCC[C@@]6(C5)CN(C(=O)n5cnc(Cl)n5)[C@@H]6C5CC5)nc(OC[C@@]56CCCN5C[C@H](F)C6)nc4c3F)c12` [Compound 147, 2-amino-4-(6-chloro-4-((1R,4R)-2-(3-chloro-1H-1,2,4-triazole-1-carbonyl)-1-cyclopropyl-2,6-diazaspiro[3.6]decan-6-yl)-8-fluoro-2-(((2R,7aS)-2-fluorotetrahydro-1H-pyrrolizin-7a(5H)-yl)methoxy)quinazolin-7-yl)-7-fluorobenzo[b]thiophene-3-carbonitrile], under “≤500 nM”, the half-maximal inhibitory concentration (IC50) was not above 500 nM.

As to `CN(C[C@@H]1CN(C(=O)n2cnc(F)n2)[C@@H]1C1(CF)CC1)c1nc(OC[C@@]23CCCN2C[C@H](F)C3)nc2c(F)c(-c3ccc(F)c4sc(N)c(C#N)c34)c(Cl)cc12` [Compound 148, 2-amino-4-(6-chloro-8-fluoro-4-((((2S,3R)-1-(3-fluoro-1H-1,2,4-triazole-1-carbonyl)-2-(1-(fluoromethyl)cyclopropyl)azetidin-3-yl)methyl)(methyl)amino)-2-(((2R,7aS)-2-fluorotetrahydro-1H-pyrrolizin-7a(5H)-yl)methoxy)quinazolin-7-yl)-7-fluorobenzo[b]thiophene-3-carbonitrile], for the setting “≤500 nM”, the IC50 was not above 500 nM.

As to `CCN(C(=O)n1cnc(Cl)n1)C1CCN(c2nc(OC[C@@]34CCCN3C[C@H](F)C4)nc3c(F)c(-c4ccc(F)c5sc(N)c(C#N)c45)c(Cl)cc23)C1C` (stereo partly drawn) [Compound 149, N-(1-(7-(2-amino-3-cyano-7-fluorobenzo[b]thiophen-4-yl)-6-chloro-8-fluoro-2-(((2R,7aS)-2-fluorotetrahydro-1H-pyrrolizin-7a(5H)-yl)methoxy)quinazolin-4-yl)-2-methylpyrrolidin-3-yl)-3-chloro-N-ethyl-1H-1,2,4-triazole-1-carboxamide], the 50% inhibitory concentration (IC50) (500 nM to 5 μM (mixed units)) lay in the range of 500 to 5000 nM.

On to `N#Cc1c(N)sc2c(F)ccc(-c3c(Cl)cc4c(N5CCCC(N(C(=O)n6cnc(Cl)n6)C6CC6)C5)nc(OC[C@@]56CCCN5C[C@H](F)C6)nc4c3F)c12` (stereo partly drawn) [Compound 151, N-(1-(7-(2-amino-3-cyano-7-fluorobenzo[b]thiophen-4-yl)-6-chloro-8-fluoro-2-(((2R,7aS)-2-fluorotetrahydro-1H-pyrrolizin-7a(5H)-yl)methoxy)quinazolin-4-yl)piperidin-3-yl)-3-chloro-N-cyclopropyl-1H-1,2,4-triazole-1-carboxamide], for which the 50% inhibitory concentration (IC50) (500 nM to 5 μM (mixed units)) was in the range of 500 to 5000 nM.

For the compound `CN(C[C@@H]1CN(C(=O)n2cnc(F)n2)[C@@H]1C(C)(C)C)c1nc(OC[C@@]23CCCN2C[C@H](F)C3)nc2c(F)c(-c3ccc(F)c4sc(N)c(C#N)c34)c(Cl)cc12` [Compound 152, 2-amino-4-(4-((((2S,3R)-2-(tert-butyl)-1-(3-fluoro-1H-1,2,4-triazole-1-carbonyl)azetidin-3-yl)methyl)(methyl)amino)-6-chloro-8-fluoro-2-(((2R,7aS)-2-fluorotetrahydro-1H-pyrrolizin-7a(5H)-yl)methoxy)quinazolin-7-yl)-7-fluorobenzo[b]thiophene-3-carbonitrile], the half-maximal inhibitory concentration (IC50) (≤500 nM) is not above 500 nM.

`CC(C)[C@H]1N(C(=O)n2cnc(Cl)n2)C[C@]12CC[C@@H](C)N(c1nc(OC[C@@]34CCCN3C[C@H](F)C4)nc3c(F)c(-c4ccc(F)c5sc(N)c(C#N)c45)c(Cl)cc13)C2` [Compound 153, 2-amino-4-(6-chloro-4-((1R,4R,7R)-2-(3-chloro-1H-1,2,4-triazole-1-carbonyl)-1-isopropyl-7-methyl-2,6-diazaspiro[3.5]nonan-6-yl)-8-fluoro-2-(((2R,7aS)-2-fluorotetrahydro-1H-pyrrolizin-7a(5H)-yl)methoxy)quinazolin-7-yl)-7-fluorobenzo[b]thiophene-3-carbonitrile]: the half-maximal inhibitory concentration (IC50) (500 nM to 5 μM (mixed units)) lay within 500 to 5000 nM.

Regarding `CCN(C[C@@H]1CN(C(=O)n2cnc(Cl)n2)[C@@H]1C(C)C)c1nc(OC[C@@]23CCCN2C[C@H](F)C3)nc2c(F)c(-c3ccc(F)c4sc(N)c(C#N)c34)c(Cl)cc12` [Compound 154, 2-amino-4-(6-chloro-4-((((2R,3R)-1-(3-chloro-1H-1,2,4-triazole-1-carbonyl)-2-isopropylazetidin-3-yl)methyl)(ethyl)amino)-8-fluoro-2-(((2R,7aS)-2-fluorotetrahydro-1H-pyrrolizin-7a(5H)-yl)methoxy)quinazolin-7-yl)-7-fluorobenzo[b]thiophene-3-carbonitrile], under “≤500 nM”, the IC50 is not above 500 nM.

With `N#Cc1c(N)sc2c(F)ccc(-c3c(Cl)cc4c(N5CCOC6(C5)CN(C(=O)n5cncn5)C6C5CC5)nc(OC[C@@]56CCCN5C[C@H](F)C6)nc4c3F)c12` (stereo partly drawn) [Compound 156, 2-amino-4-(6-chloro-4-(1-cyclopropyl-2-(1H-1,2,4-triazole-1-carbonyl)-5-oxa-2,8-diazaspiro[3.5]nonan-8-yl)-8-fluoro-2-(((2R,7aS)-2-fluorotetrahydro-1H-pyrrolizin-7a(5H)-yl)methoxy)quinazolin-7-yl)-7-fluorobenzo[b]thiophene-3-carbonitrile], where the note is “500 nM to 5 μM (mixed units)”, the half-inhibitory concentration (IC50) was 500 to 5000 nM.

As for `CC(C)[C@H]1N(C(=O)n2cnc(C(F)(F)F)n2)C[C@@]12CN(c1nc(OC[C@@]34CCCN3C[C@H](F)C4)nc3c(F)c(-c4ccc(F)c5sc(N)c(C#N)c45)c(Cl)cc13)CCO2` [Compound 160, 2-amino-4-(6-chloro-8-fluoro-2-(((2R,7aS)-2-fluorotetrahydro-1H-pyrrolizin-7a(5H)-yl)methoxy)-4-((1R,4S)-1-isopropyl-2-(3-(trifluoromethyl)-1H-1,2,4-triazole-1-carbonyl)-5-oxa-2,8-diazaspiro[3.5]nonan-8-yl)quinazolin-7-yl)-7-fluorobenzo[b]thiophene-3-carbonitrile], the half-inhibitory concentration (IC50) (≤500 nM) is not above 500 nM.

In the case of `CN(C(=O)n1cncn1)C1CCCCN(c2nc(OC[C@@]34CCCN3C[C@H](F)C4)nc3c(F)c(-c4ccc(F)c5sc(N)c(C#N)c45)c(Cl)cc23)C1` (stereo partly drawn) [Compound 161, N-(1-(7-(2-amino-3-cyano-7-fluorobenzo[b]thiophen-4-yl)-6-chloro-8-fluoro-2-(((2R,7aS)-2-fluorotetrahydro-1H-pyrrolizin-7a(5H)-yl)methoxy)quinazolin-4-yl)azepan-3-yl)-N-methyl-1H-1,2,4-triazole-1-carboxamide], the half-inhibitory concentration (IC50) (≤500 nM) was not above 500 nM.

As to `CC(C)[C@H]1N(C(=O)n2cnc(C(F)F)n2)C[C@]12CCCN(c1nc(OC[C@@]34CCCN3C[C@H](F)C4)nc3c(F)c(-c4ccc(F)c5sc(N)c(C#N)c45)c(Cl)cc13)C2` [Compound 165, 2-amino-4-(6-chloro-4-((1R,4R)-2-(3-(difluoromethyl)-1H-1,2,4-triazole-1-carbonyl)-1-isopropyl-2,6-diazaspiro[3.5]nonan-6-yl)-8-fluoro-2-(((2R,7aS)-2-fluorotetrahydro-1H-pyrrolizin-7a(5H)-yl)methoxy)quinazolin-7-yl)-7-fluorobenzo[b]thiophene-3-carbonitrile], the half-maximal inhibitory concentration (IC50) (≤500 nM) is not above 500 nM.

For `N#CCCN(C(=O)n1cncn1)C1CCCN(c2nc(OC[C@@]34CCCN3C[C@H](F)C4)nc3c(F)c(-c4ccc(F)c5sc(N)c(C#N)c45)c(Cl)cc23)CC1` (stereo partly drawn) [Compound 166, N-(1-(7-(2-amino-3-cyano-7-fluorobenzo[b]thiophen-4-yl)-6-chloro-8-fluoro-2-(((2R,7aS)-2-fluorotetrahydro-1H-pyrrolizin-7a(5H)-yl)methoxy)quinazolin-4-yl)azepan-4-yl)-N-(2-cyanoethyl)-1H-1,2,4-triazole-1-carboxamide], the concentration for half-maximal inhibition (IC50) (500 nM to 5 μM (mixed units)) was 500 to 5000 nM.

`CC([C@H]1CCN1C(=O)n1cnc(Cl)n1)N(C)c1nc(OC[C@@]23CCCN2C[C@H](F)C3)nc2c(F)c(-c3ccc(F)c4sc(N)c(C#N)c34)c(Cl)cc12` (stereo partly drawn) [Compound 172, (4R)-2-amino-4-(6-chloro-4-((1-(1-(3-chloro-1H-1,2,4-triazole-1-carbonyl)azetidin-2-yl)ethyl)(methyl)amino)-8-fluoro-2-(((2R,7aS)-2-fluorotetrahydro-1H-pyrrolizin-7a (5H)-yl)methoxy)quinazolin-7-yl)-7-fluorobenzo[b]thiophene-3-carbonitrile]: under “500 nM to 5 μM (mixed units)”, the 50% inhibitory concentration (IC50) lay in the range of 500 to 5000 nM.

As for `CC(C)C1N(C(=O)n2cnc(Cl)n2)CC12CCCN(c1nc(OC[C@@]34CCCN3C[C@H](F)C4)nc3c(F)c(-c4ccc(F)c5sc(N)c(C#N)c45)c(Cl)cc13)C2` (stereo partly drawn) [Compound 175, 2-amino-4-(6-chloro-4-(2-(3-chloro-1H-1,2,4-triazole-1-carbonyl)-1-isopropyl-2,6-diazaspiro[3.5]nonan-6-yl)-8-fluoro-2-(((2R,7aS)-2-fluorotetrahydro-1H-pyrrolizin-7a(5H)-yl)methoxy)quinazolin-7-yl)-7-fluorobenzo[b]thiophene-3-carbonitrile], the IC50 (≤500 nM) was not above 500 nM.

Consider `CCN(C(=O)n1cncn1)C1CCN(c2nc(OC[C@@]34CCCN3C[C@H](F)C4)nc3c(F)c(-c4ccc(F)c5sc(N)c(C#N)c45)c(Cl)cc23)C1` (stereo partly drawn) [Compound 177, N-(1-(7-(2-amino-3-cyano-7-fluorobenzo[b]thiophen-4-yl)-6-chloro-8-fluoro-2-(((2R,7aS)-2-fluorotetrahydro-1H-pyrrolizin-7a(5H)-yl)methoxy)quinazolin-4-yl)pyrrolidin-3-yl)-N-ethyl-1H-1,2,4-triazole-1-carboxamide], for which, where the note is “≤500 nM”, the IC50 is not above 500 nM.

In the case of `CC1([C@H]2N(C(=O)n3cnc(Cl)n3)C[C@]23CCCN(c2nc(OC[C@@]45CCCN4C[C@H](F)C5)nc4c(F)c(-c5ccc(F)c6sc(N)c(C#N)c56)c(Cl)cc24)C3)CC1` [Compound 179, 2-amino-4-(6-chloro-4-((1R,4R)-2-(3-chloro-1H-1,2,4-triazole-1-carbonyl)-1-(1-methylcyclopropyl)-2,6-diazaspiro[3.5]nonan-6-yl)-8-fluoro-2-(((2R,7aS)-2-fluorotetrahydro-1H-pyrrolizin-7a(5H)-yl)methoxy)quinazolin-7-yl)-7-fluorobenzo[b]thiophene-3-carbonitrile], the IC50 (≤500 nM) is not above 500 nM.
